# Assay results taken from ChEMBL document CHEMBL1212936, “Discovery of 2-[1-(4-chlorophenyl)cyclopropyl]-3-hydroxy-8-(trifluoromethyl)quinoline-4-carboxylic acid (PSI-421), a P-selectin inhibitor with improved pharmacokinetic properties and oral efficacy in models of vascular injury” (J Med Chem, 2010).
# Activity calls are given as the source filed them. The rule behind the calls is not given here.
# Tests used:
# [1] = Permeability from basolateral to apical side in human Caco-2 cells; format: ADME, cell-based
# Plasma = experiment: Drug level in Sprague-Dawley rat plasma at 3 mg/kg, po; format: ADME, organism-based; set-up: dose 3 mg/kg, route oral; conditions: in vivo
# [2] = Permeability from apical to basolateral side in human Caco-2 cells; format: ADME, cell-based
# [3] = Clearance in Sprague-Dawley rat at 3 mg/kg, iv and 10 mg/kg, po; format: ADME, organism-based; conditions: in vivo
# Mus musculus = experiment: Dose normalized AUC in C57B6 mouse measured per mg of plasma at 2 mg/kg, iv and 10 mg/kg, po; format: ADME, organism-based; conditions: in vivo
# [4] = Physiological stability of the compound at pH 7.4 assessed as compound remaining after 20 hrs in presence of 20% acetonitrile; format: physicochemical; conditions: read-out: Stability
# [5] = Physiological stability of the compound at pH 9 assessed as compound remaining after 16 hrs in presence of 20% acetonitrile; format: physicochemical; conditions: read-out: Stability
# Cynomolgus monkey = experiment: Dose normalized AUC in cynomolgus monkey measured per mg of plasma at 5 mg/kg, iv and po; format: ADME, organism-based, Macaca fascicularis; set-up: dose 5 mg/kg, route oral; conditions: in vivo
# Rattus norvegicus [6] = experiment: Inhibition of leukocytes rolling flux in acute intravital microscopy Sprague-Dawley rat model at 30 mg/kg, po after 35 mins relative to control; format: functional
# [7] = Physiological stability of the compound in simulated intestinal fluid assessed as compound remaining after 12 hrs in presence of 20% acetonitrile; format: physicochemical; conditions: read-out: Stability
# [8] = Physiological stability of the compound at pH 7.4 assessed as compound remaining after 16 hrs in presence of 20% acetonitrile; format: physicochemical; conditions: read-out: Stability
# [9] = Physiological stability of the compound in simulated intestinal bile salts-lecithin mixture fluid assessed as compound remaining after 24 hrs in presence of 20% acetonitrile; format: physicochemical; conditions: read-out: Stability
# [10] = Physiological stability of the compound in simulated intestinal fluid assessed as compound remaining after 8 hrs in presence of 20% acetonitrile; format: physicochemical; conditions: read-out: Stability
# [11] = Physiological stability of the compound at pH 9 assessed as compound remaining after 20 hrs in presence of 20% acetonitrile; format: physicochemical; conditions: read-out: Stability
# [12] = Half life in Sprague-Dawley rat liver microsomes; format: ADME, Microsome
# [13] = Physiological stability of the compound in simulated intestinal bile salts-lecithin mixture fluid assessed as compound remaining after 16 hrs in presence of 20% acetonitrile; format: physicochemical; conditions: read-out: Stability
# [14] = Aqueous solubility of the compound at pH 7.4; format: physicochemical; conditions: aqueous solution, read-out: solubility
# [15] = Physiological stability of the compound at pH 9 assessed as compound remaining after 8 hrs in presence of 20% acetonitrile; format: physicochemical; conditions: read-out: Stability
# [16] = Physiological stability of the compound at pH 7.4 assessed as compound remaining after 8 hrs in presence of 20% acetonitrile; format: physicochemical; conditions: read-out: Stability
# [17] = Physiological stability of the compound at pH 7.4 assessed as compound remaining after 12 hrs in presence of 20% acetonitrile; format: physicochemical; conditions: read-out: Stability
# [18] = Physiological stability of the compound in simulated intestinal fluid assessed as compound remaining after 24 hrs in presence of 20% acetonitrile; format: physicochemical; conditions: read-out: Stability
# [19] = Half life in human liver microsomes; format: ADME, Microsome
# [20] = molecular target: Voltage-gated inwardly rectifying potassium channel KCNH2 (Homo sapiens, UniProt Q12809); experiment: Inhibition of human ERG
# [21] = Physiological stability of the compound at pH 9 assessed as compound remaining after 4 hrs in presence of 20% acetonitrile; format: physicochemical; conditions: read-out: Stability
# [22] = Physiological stability of the compound at pH 6.6 assessed as compound remaining after 24 hrs in presence of 20% acetonitrile; format: physicochemical; conditions: read-out: Stability
# [23] = Physiological stability of the compound at pH 4.5 assessed as compound remaining after 8 hrs in presence of 20% acetonitrile; format: physicochemical; conditions: read-out: Stability
# Rattus norvegicus [24] = experiment: Inhibition of Sprague-Dawley rat neointimal hyperplasia carotid balloon injury model at 30 mg/kg, po once daily for 13 days; format: functional; conditions: 312 h
# [25] = Physiological stability of the compound in simulated intestinal fluid assessed as compound remaining after 16 hrs in presence of 20% acetonitrile; format: physicochemical; conditions: read-out: Stability
# [26] = Solubility of the compound in simulated intestinal fluid; format: physicochemical
# Papio anubis = experiment: Antithrombotic activity in Baboon deep vein thrombosis model assessed as decrease in vein wall inflammation at 1 mg/kg, po; format: functional, organism-based; set-up: dose 1 mg/kg
# Rattus norvegicus [27] = experiment: Dose normalized AUC in Sprague-Dawley rat measured per mg of plasma at 3 mg/kg, iv and 10 mg/kg, po; format: ADME, organism-based; conditions: in vivo
# [28] = Physiological stability of the compound in simulated intestinal bile salts-lecithin mixture fluid assessed as compound remaining after 20 hrs in presence of 20% acetonitrile; format: physicochemical; conditions: read-out: Stability
# [29] = molecular target: T1, P-selectin glycoprotein ligand 1 (Homo sapiens) (UniProt Q14242); experiment: Inhibition of recombinant PSGL-1 at 250 uM by surface plasmon resonance assay
# T1 sequence (whole entry): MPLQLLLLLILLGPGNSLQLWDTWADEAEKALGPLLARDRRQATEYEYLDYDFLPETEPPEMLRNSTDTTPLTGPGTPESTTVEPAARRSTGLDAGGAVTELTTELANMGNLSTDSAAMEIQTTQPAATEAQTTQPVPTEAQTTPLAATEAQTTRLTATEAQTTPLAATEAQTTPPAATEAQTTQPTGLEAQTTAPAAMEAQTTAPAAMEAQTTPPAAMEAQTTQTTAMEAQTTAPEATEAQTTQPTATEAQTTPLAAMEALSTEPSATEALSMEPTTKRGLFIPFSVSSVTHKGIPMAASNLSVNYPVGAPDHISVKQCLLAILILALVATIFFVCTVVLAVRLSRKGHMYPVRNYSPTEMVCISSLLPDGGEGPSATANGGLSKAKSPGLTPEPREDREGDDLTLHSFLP
# [30] = Physiological stability of the compound at pH 1 assessed as compound remaining after 24 hrs in presence of 20% acetonitrile; format: physicochemical; conditions: read-out: Stability
# [31] = Solubility of the compound in fasted simulated intestinal bile salts-lecithin mixture fluid at pH 6; format: physicochemical
# [32] = Aqueous solubility of the compound at pH 6.6; format: physicochemical; conditions: aqueous solution
# [33] = Physiological stability of the compound at pH 6.6 assessed as compound remaining after 12 hrs in presence of 20% acetonitrile; format: physicochemical; conditions: read-out: Stability
# Chain of Voltage-gated inwardly rectifying potassium channel KCNH2 (Q12809 whole entry): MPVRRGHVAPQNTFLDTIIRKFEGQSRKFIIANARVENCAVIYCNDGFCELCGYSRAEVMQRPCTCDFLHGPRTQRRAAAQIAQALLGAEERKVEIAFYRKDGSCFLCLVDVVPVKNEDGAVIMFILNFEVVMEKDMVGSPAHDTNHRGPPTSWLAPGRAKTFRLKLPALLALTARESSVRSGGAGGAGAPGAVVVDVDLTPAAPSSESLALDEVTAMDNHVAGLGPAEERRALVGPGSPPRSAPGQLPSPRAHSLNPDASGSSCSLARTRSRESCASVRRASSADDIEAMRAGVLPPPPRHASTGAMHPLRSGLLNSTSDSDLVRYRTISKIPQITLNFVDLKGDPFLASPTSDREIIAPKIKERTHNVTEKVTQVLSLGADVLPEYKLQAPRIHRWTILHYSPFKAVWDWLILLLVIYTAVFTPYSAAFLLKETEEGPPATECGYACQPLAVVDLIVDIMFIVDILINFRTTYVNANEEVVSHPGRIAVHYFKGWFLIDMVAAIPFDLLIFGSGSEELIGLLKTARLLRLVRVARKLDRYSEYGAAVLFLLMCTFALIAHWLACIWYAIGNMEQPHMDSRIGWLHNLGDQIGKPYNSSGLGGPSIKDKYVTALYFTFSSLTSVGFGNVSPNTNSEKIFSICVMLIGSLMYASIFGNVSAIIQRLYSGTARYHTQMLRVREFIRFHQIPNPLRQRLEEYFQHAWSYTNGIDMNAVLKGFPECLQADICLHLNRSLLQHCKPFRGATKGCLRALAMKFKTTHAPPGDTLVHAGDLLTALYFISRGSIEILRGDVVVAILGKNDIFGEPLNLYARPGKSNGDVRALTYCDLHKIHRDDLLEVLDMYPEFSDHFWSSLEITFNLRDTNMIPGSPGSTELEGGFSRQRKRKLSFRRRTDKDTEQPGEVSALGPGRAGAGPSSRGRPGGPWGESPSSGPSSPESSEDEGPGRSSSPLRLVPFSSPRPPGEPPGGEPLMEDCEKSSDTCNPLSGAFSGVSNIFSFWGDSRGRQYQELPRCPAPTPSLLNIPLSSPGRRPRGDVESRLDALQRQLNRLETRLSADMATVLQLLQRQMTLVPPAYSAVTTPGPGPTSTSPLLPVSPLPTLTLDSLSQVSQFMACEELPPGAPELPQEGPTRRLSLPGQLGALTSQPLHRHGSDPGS
structure (smiles),measurement,setting,value
O=C(O)c1c(O)c(C2(c3ccc(Cl)cc3)CC2)nc2c(C(F)(F)F)cccc12,Papp B→A,[1],9.8 ×10⁻⁶ cm/s
same,Cp,Plasma,3000 ng/mL
same,Papp A→B,[2],5.1 ×10⁻⁶ cm/s
same,clearance,[3],0.7 mL/min/kg
same,AUC,Mus musculus,1505 ng·h/mL
same,remaining at 20 h,[4],102%
same,remaining at 16 h,[5],98.7%
same,AUC,Cynomolgus monkey,84620 ng·h/mL
same,inhibition in vivo at 30 mg/kg,Rattus norvegicus [6],61%
same,remaining at 12 h,[7],101%
same,remaining at 16 h,[8],102%
same,remaining at 24 h,[9],103%
same,remaining at 8 h,[10],104%
same,remaining at 20 h,[11],101%
same,half-life,[12],> 1 h
same,remaining at 16 h,[13],102%
same,solubility,[14],165 µg/mL
same,remaining at 8 h,[15],98%
same,remaining at 8 h,[16],102%
same,remaining at 12 h,[17],102%
same,remaining at 24 h,[18],95%
same,half-life,[19],> 1 h
same,inhibition (INH),[20],Not Active
same,remaining at 4 h,[21],98.5%
same,remaining at 24 h,[22],104%
same,remaining at 8 h,[23],102%
same,inhibition in vivo at 30 mg/kg,Rattus norvegicus [24],31%
same,remaining at 16 h,[25],101%
same,solubility,[26],3950 µg/mL
same,Activity,Papio anubis,Active
same,AUC,Rattus norvegicus [27],21000 ng·h/mL
same,remaining at 20 h,[28],103%
same,inhibition,[29],55%
same,remaining at 24 h,[30],101%
same,solubility,[31],87 µg/mL
same,solubility,[32],920 µg/mL
same,remaining at 12 h,[33],106%
